Test results reported in patent US20100035848A1, “THERAPY FOR DISORDERS OF THE PROXIMAL DIGESTIVE TRACT” (priority 2008, published 2010).

Assays:
duodenal ulcer = conditions: administered to treat heart failure; Gidaiatov et al. (2000); cited from earlier work
[1] = system: gastric mucosal erosions, dyspeptic symptoms; conditions: cited from earlier work
ACE2 = molecular target: T1, ACE2 (Rattus norvegicus, UniProt Q5EGZ1); assay: Acute diclofenac-induced gastric toxicity in rats: ACE2 activity in stomach tissue; assay type: in vivo
T1 construct: from tissue; host or cells: rat stomach (excluding forestomach) homogenate
Method: (§1) Male Wistar rats were deprived of food but not water for 16 hours prior to oral administration of GL1001 90 mg/kg, incubated for 30 minutes and then given oral diclofenac 50 mg/kg. Each group consisted of 6 rats. As a negative control, one group received vehicle pretreatment, and then received vehicle instead of diclofenac. A positive control group received PGE2 100 μg/kg orally, 30 minutes prior to administration of diclofenac. All treatments were administered by oral gavage.
(§2) Three hours after diclofenac treatment, all animals were sacrificed and stomachs were removed and imaged to determine the severity of gastric damage. Additionally, stomach tissue samples were taken to assess disease activity and pharmacodynamic effects. Gastric damage scores were determined from photographic images (Ma & Wallace (2003) Am. J. Physiol. Gastrointest. Liver Physiol. 279; 341-346). Removed stomachs were opened along the greater curvature, pinned out on a wax block, and photographed along a 25 mm ruler reference with a digital 35 mm camera. The lesion area was then determined using enlarged images and computer software (www.scioncorp.co/pages/scion_image_windows.htm) that allows superimposed drawing of the perimeter of a wound and calculation of the area based on the ruler reference. Stomach samples (excluding forestomach) were used for measurements of PGE2 concentration, MPO activity and ACE2 activity. […] Concentration of PGE2 from stomach tissue samples was performed as described by Souza et al. (2003), supra, and quantification was obtained by LC-MS. […] Last, the extent of inhibition of ACE2 activity was determined to establish whether GL1001 was effective in inhibiting its ACE2 target in stomach tissues. The ACE2 activity assay is similar to the method of Vickers et al. (2002) J. Biol. Chem. 277:14838-14843, wherein purified recombinant ACE2 (100 pM) and a quenched fluorescent substrate (100-150 μM APK (7-methoxycoumarin-4-yl)acetyl-Ala-Pro-Lys (2,4-dinitrophenyl)) are used in end-point fluorescence reactions (excitation 320 nm, emission 405 nm). […]
(§3) Data are expressed as means with standard errors. […]

myeloperoxidase = assay: Acute indomethacin-induced gastric toxicity in rats: gastric myeloperoxidase activity; assay type: in vivo, rat; conditions: Group J: PGE2 100 μg/kg p.o., indomethacin 20 mg/kg p.o.; vehicle Group I 29.5 ± 2.8
Method: A study was conducted to determine whether GL1001 would inhibit acute NSAID (indomethacin)-induced gastric toxicity in a rat model (Wallace et al. (1998) Gastroenterol. 115:101-109). Several modes of treatment with GL1001 or vehicle were employed, which included administration via drinking water, oral administration and subcutaneous administration as shown in Table 4. Irrespective of the route of drug or vehicle administration, male Wistar rats were deprived of food for 16 h prior to oral administration of 20 mg/kg indomethacin (Sigma) or vehicle (5% w/v sodium bicarbonate; 1 ml/kg). Three hours later the rats were sacrificed and the severity of gastric damage was blindly scored. This involved measurement of the lengths (in mm) of all hemorrhagic erosions and summing these to give a “gastric damage score” for each stomach. Samples of the stomach were taken for measurement of prostaglandin E2 (PGE2) synthesis as described by Wallace et al. (1998), supra, and myeloperoxidase activity as described by Souza et al. (2003) Am. J. Physiol. 285:[…]-61. Myeloperoxidase is an enzyme found in all cells of mycloid origin, but particularly enriched within neutrophils. […] Based on average water consumption by rats, this was aimed at providing a daily dose of GL1100 of 1200 mg/kg (water consumption was monitored for several days prior to initiation of the study). […] Data are expressed as mean±SEM. […]

gastric PGE2 = assay: Acute diclofenac-induced gastric toxicity in rats: gastric PGE2 concentration; assay type: in vivo, rat
Method: as §1, §2, §3

gastric PGE2 synthesis = assay: Acute indomethacin-induced gastric toxicity in rats: gastric PGE2 synthesis; assay type: in vivo, rat; conditions: indomethacin 20 mg/kg p.o.
Method: A study was conducted to determine whether GL1001 would inhibit acute NSAID (indomethacin)-induced gastric toxicity in a rat model (Wallace et al. (1998) Gastroenterol. 115:101-109). Several modes of treatment with GL1001 or vehicle were employed, which included administration via drinking water, oral administration and subcutaneous administration as shown in Table 4. Irrespective of the route of drug or vehicle administration, male Wistar rats were deprived of food for 16 h prior to oral administration of 20 mg/kg indomethacin (Sigma) or vehicle (5% w/v sodium bicarbonate; 1 ml/kg). Three hours later the rats were sacrificed and the severity of gastric damage was blindly scored. This involved measurement of the lengths (in mm) of all hemorrhagic erosions and summing these to give a “gastric damage score” for each stomach. Samples of the stomach were taken for measurement of prostaglandin E2 (PGE2) synthesis as described by Wallace et al. (1998), supra, and myeloperoxidase activity as described by Souza et al. (2003) Am. J. Physiol. 285:[…]-61. Myeloperoxidase is an enzyme found in all cells of mycloid origin, but particularly enriched within neutrophils. It is therefore used as a biochemical marker of granulocyte infiltration into tissue. Each group consisted of 6 rats. As a negative control, one group received vehicle pretreatments (in the drinking water and by oral gavage) and then received vehicle instead of indomethacin. […] [table] In the experiments where GL1001 (or vehicle) was added to drinking water, the rats were provided with the modified drinking water for 2 days prior to administration of indomethacin (or vehicle). This included the period when the rats were deprived of food. GL1001 was prepared in 0.1M citrate buffer before being added to the drinking water. Based on average water consumption by rats, this was aimed at providing a daily dose of GL1100 of 1200 mg/kg (water consumption was monitored for several days prior to initiation of the study). Oral or subcutaneous administration of GL1001 (or vehicle) was performed 30 minutes prior to administration of indomethacin. Data are expressed as mean±SEM. When two groups of data were compared, a Student's t-test was used. When more than two groups of data were compared, a one-way analysis of variance followed by the Newman-Keuls test was used. An associated probability of less than 5% was considered statistically significant.

[2] = system: diclofenac-induced gastric damage; assay: Acute diclofenac-induced gastric toxicity in rats: gastric damage score; assay type: in vivo, rat; conditions: for Gastric damage score: Group D: PGE2 100 μg/kg oral 30 min before diclofenac 50 mg/kg oral, 3 h, Group B 17.80 ± 5.08
Method: as §1
Three hours after diclofenac treatment, all animals were sacrificed and stomachs were removed and imaged to determine the severity of gastric damage. Additionally, stomach tissue samples were taken to assess disease activity and pharmacodynamic effects. Gastric damage scores were determined from photographic images (Ma & Wallace (2003) Am. J. Physiol. Gastrointest. Liver Physiol. 279; 341-346). Removed stomachs were opened along the greater curvature, pinned out on a wax block, and photographed along a 25 mm ruler reference with a digital 35 mm camera. The lesion area was then determined using enlarged images and computer software (www.scioncorp.co/pages/scion_image_windows.htm) that allows superimposed drawing of the perimeter of a wound and calculation of the area based on the ruler reference. Stomach samples (excluding forestomach) were used for measurements of PGE2 concentration, MPO activity and ACE2 activity. PRE2 determinations are used in this study as a hiomarker of diclofenac effect since its mechanism of action involves inhibition of cyclooxygenase (COX-2 and COX-1) enzymes which in turn results in inhibition of PGE2 synthesis. Concentration of PGE2 from stomach tissue samples was performed as described by Souza et al. (2003), supra, and quantification was obtained by LC-MS. MTO, an enzyme found in abundance in granulocytes, is used as a biochemical marker of tissue inflammation. When tissues undergo inflammatory processes, granulocytes are recruited to the site of inflammation and infiltrate the affected tissue giving rise to increase MPO activity (Souza et al. (2003), supra). Last, the extent of inhibition of ACE2 activity was determined to establish whether GL1001 was effective in inhibiting its ACE2 target in stomach tissues. The ACE2 activity assay is similar to the method of Vickers et al. (2002) J. Biol. Chem. 277:14838-14843, wherein purified recombinant ACE2 (100 pM) and a quenched fluorescent substrate (100-150 μM APK (7-methoxycoumarin-4-yl)acetyl-Ala-Pro-Lys (2,4-dinitrophenyl)) are used in end-point fluorescence reactions (excitation 320 nm, emission 405 nm). For stomach ACE2 measurements, tissues were homogenized in the presence of a general protease inhibitor (PMSF) and specific ACE inhibitors. […]
as §3

T1 sequence (Q5EGZ1 18-805): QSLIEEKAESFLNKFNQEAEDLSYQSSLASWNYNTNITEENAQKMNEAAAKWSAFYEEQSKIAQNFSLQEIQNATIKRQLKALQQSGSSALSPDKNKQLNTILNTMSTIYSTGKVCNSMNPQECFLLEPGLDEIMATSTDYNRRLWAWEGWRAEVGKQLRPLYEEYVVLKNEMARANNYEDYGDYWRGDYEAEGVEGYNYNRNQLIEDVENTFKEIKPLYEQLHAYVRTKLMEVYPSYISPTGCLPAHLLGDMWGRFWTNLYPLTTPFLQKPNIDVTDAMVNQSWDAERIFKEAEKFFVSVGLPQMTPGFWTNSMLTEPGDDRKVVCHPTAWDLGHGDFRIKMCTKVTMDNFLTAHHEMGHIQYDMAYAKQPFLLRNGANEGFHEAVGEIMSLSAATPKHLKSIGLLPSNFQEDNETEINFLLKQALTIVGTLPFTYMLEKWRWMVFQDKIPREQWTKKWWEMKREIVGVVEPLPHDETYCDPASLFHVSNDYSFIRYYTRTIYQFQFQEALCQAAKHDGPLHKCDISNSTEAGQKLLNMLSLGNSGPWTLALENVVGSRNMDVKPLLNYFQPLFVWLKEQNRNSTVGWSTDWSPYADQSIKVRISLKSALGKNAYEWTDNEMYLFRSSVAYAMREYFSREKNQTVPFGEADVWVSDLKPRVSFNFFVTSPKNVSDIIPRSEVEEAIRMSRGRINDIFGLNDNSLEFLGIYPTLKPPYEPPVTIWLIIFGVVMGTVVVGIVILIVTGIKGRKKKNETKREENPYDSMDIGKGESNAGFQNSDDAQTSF

Compound: CCOC(=O)[C@H](CCc1ccccc1)N[C@@H](C)C(=O)N1CCC[C@H]1C(=O)O [enalapril]
- healing of duodenal ulcer, patients treated (duodenal ulcer): 87%
- percentage of patients with dyspeptic symptoms ([1]; hypertensive patients, decreased from 78% upon treatment): 40%
- number of patients having gastric mucosal erosions ([1]; of 30 hypertensive patients, decreased from 11 upon treatment): 4

Compound: CCCCC[C@H](O)/C=C/[C@H]1[C@H](O)CC(=O)[C@@H]1C/C=C\CCCC(=O)O [PGE2, prostaglandin E2]
- Gastric ACE2 activity (ACE2; Group D: PGE2 100 μg/kg oral before diclofenac 50 mg/kg, Group B 880 ± 39): 688 ± 30 pmol/mg
- Gastric MPO activity (myeloperoxidase): 22.8 ± 2.2 U/mg
- Gastric PGE2 concentration (gastric PGE2; Group D: PGE2 100 μg/kg oral before diclofenac 50 mg/kg): 0 pg/mg
- Gastric PGE2 synthesis (gastric PGE2 synthesis; Group J: PGE2 100 μg/kg p.o., vehicle Group I 6.08 ± 1.00): 6.10 ± 1.00 ng/mg
- Gastric damage score [2]: 0
- Gastric damage score ([2]; listed as PCGE2): total absence of gastric lesions

Compound: O=C(O)Cc1ccccc1Nc1c(Cl)cccc1Cl [diclofenac]
- Activity of ACE2 in stomach tissue (ACE2; diclofenac-treated Group B vs Group A, p=0.052): trend towards up-regulation
- PGE2 levels in stomach tissue (gastric PGE2; all treatment groups that received diclofenac 50 mg/kg oral, vehicle Group A 43.22 pg/mg): no detectable
- mean gastric damage score ([2]; diclofenac 50 mg/kg oral after vehicle pretreatment, 3 h (Group B)): 17.8

Compound: COc1ccc2c(c1)c(CC(=O)O)c(C)n2C(=O)c1ccc(Cl)cc1 [indomethacin, reference compound]
- reduction of gastric PGE2 synthesis (gastric PGE2 synthesis; irrespective of pretreatment, vehicle only Group E 82 ng/mg): > 92%
